Reference: patent US8258134B2, “Pyridazinone glucokinase activators” (Hoffmann-La Roche Inc., priority 2008, dated 2012)

target: T1, Recombinant human liver GK1 (GST-GK) (Homo sapiens, UniProt P35557); assay: Glucokinase in vitro assay (G6PDH-coupled NADH generation, OD340); assay type: biochemical; settings: 5 mM D-glucose, 30° C., pH 7.1, 10% DMSO
T1 construct: made in house; host or cells: E. coli
T1 sequence (P35557 1-466 isoform P35557-2): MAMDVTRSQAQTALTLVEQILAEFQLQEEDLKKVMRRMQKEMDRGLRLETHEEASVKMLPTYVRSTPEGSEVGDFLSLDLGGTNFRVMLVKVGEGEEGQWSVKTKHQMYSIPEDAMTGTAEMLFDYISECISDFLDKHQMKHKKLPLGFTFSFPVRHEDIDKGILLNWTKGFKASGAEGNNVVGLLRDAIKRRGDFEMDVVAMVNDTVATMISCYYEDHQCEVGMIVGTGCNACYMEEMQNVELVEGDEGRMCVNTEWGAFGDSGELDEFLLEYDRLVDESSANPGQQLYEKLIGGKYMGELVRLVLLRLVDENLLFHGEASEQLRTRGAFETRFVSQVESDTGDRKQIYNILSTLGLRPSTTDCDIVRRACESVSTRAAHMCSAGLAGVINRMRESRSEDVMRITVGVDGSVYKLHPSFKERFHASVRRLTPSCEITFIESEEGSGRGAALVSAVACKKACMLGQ
Outline: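 Activation readout is SC1.5, the activator concentration raising GK rate (OD340/min) 50% above 10% DMSO controls. The coupled reaction used GST-GK1 from E. coli, 5 mM glucose, 1 mM ATP, 1.8 mM NAD and 25 mM Hepes pH 7.1 at 30° C. Enzyme was added after a 10 min compound pre-incubation.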

SMILES	SC1.5 average (concentration of activator that produced a 50% increase in the activity of GK)
O=C(Nc1ccn(CCO)n1)[C@@H](CC1CCCC1)n1ncc(Oc2c(F)cccc2F)cc1=O [Example 60B, (R)-3-Cyclopentyl-2-[4-(2,6-difluoro-phenoxy)-6-oxo-6H-pyridazin-1-yl]-N-[1-(2-hydroxy-ethyl)-1H-pyrazol-3-yl]-propionamide]	1.942 µM
CC(C)CC(C(=O)Nc1ccn(C[C@@H](O)CO)n1)n1ncc(Oc2c(F)cccc2F)cc1=O (stereo partly drawn) [Example 61, 2-[4-(2,6-Difluoro-phenoxy)-6-oxo-6H-pyridazin-1-yl]-4-methyl-pentanoic acid [1-((R)-2,3-dihydroxy-propyl)-1H-pyrazol-3-yl]-amide]	0.383 µM
O=C(Nc1ccn(C[C@@H](O)CO)n1)C(CC1CCOCC1)n1ncc(Oc2c(F)cccc2F)cc1=O (stereo partly drawn) [Example 62, 2-[4-(2,6-difluoro-phenoxy)-6-oxo-6H-pyridazin-1-yl]-N-[1-((R)-2,3-dihydroxy-propyl)-1H-pyrazol-3-yl]-3-(tetrahydro-pyran-4-yl)-propionamide]	0.373 µM
O=C(Nc1ccn(C[C@@H](O)CO)n1)C(CC1CCCCC1)n1ncc(Oc2c(F)cccc2F)cc1=O (stereo partly drawn) [Example 63, 3-Cyclohexyl-2-[4-(2,6-difluoro-phenoxy)-6-oxo-6H-pyridazin-1-yl]-N-[1-((R)-2,3-dihydroxy-propyl)-1H-pyrazol-3-yl]-propionamide]	0.117 µM
CCC(CC)CC(C(=O)Nc1ccn(C[C@@H](O)CO)n1)n1ncc(Oc2c(F)cccc2F)cc1=O (stereo partly drawn) [Example 64, 2-[4-(2,6-Difluoro-phenoxy)-6-oxo-6H-pyridazin-1-yl]-4-ethyl-hexanoic acid [1-((R)-2,3-dihydroxy-propyl)-1H-pyrazol-3-yl]-amide]	0.551 µM
O=C(Nc1ccn(C[C@H](O)CO)n1)C(CC1CCCC1)n1ncc(Oc2c(F)cccc2F)cc1=O (stereo partly drawn) [Example 65, 3-Cyclopentyl-2-[4-(2,6-difluoro-phenoxy)-6-oxo-6H-pyridazin-1-yl]-N-[1-((S)-2,3-dihydroxy-propyl)-1H-pyrazol-3-yl]-propionamide]	0.102 µM
O=C(Nc1ccn(C[C@H](O)CO)n1)[C@H](CC1CCCC1)n1ncc(Oc2c(F)cccc2F)cc1=O [Example 65A, (S)-3-Cyclopentyl-2-[4-(2,6-difluoro-phenoxy)-6-oxo-6H-pyridazin-1-yl]-N-[1-((S)-2,3-dihydroxy-propyl)-1H-pyrazol-3-yl]-propionamide]	0.049 µM
O=C(Nc1ccn(C[C@H](O)CO)n1)[C@@H](CC1CCCC1)n1ncc(Oc2c(F)cccc2F)cc1=O [Example 65B, (R)-3-Cyclopentyl-2-[4-(2,6-difluoro-phenoxy)-6-oxo-6H-pyridazin-1-yl]-N-[1-((S)-2,3-dihydroxy-propyl)-1H-pyrazol-3-yl]-propionamide]	3.148 µM
COC(=O)c1ccc(NC(=O)C(CC2CCCC2)n2ncc(Oc3ccccc3C3CCCC3)cc2=O)nc1 (centres unmarked) [Example 66, 6-{3-Cyclopentyl-2-[4-(2-cyclopentyl-phenoxy)-6-oxo-6H-pyridazin-1-yl]-propionylamino}-nicotinic acid methyl ester]	1.74 µM
COC(=O)c1ccc(NC(=O)C(CC2CCCC2)n2ncc(Oc3cccc4c3CCCC4)cc2=O)nc1 (centres unmarked) [Example 67, 6-{3-Cyclopentyl-2-[6-oxo-4-(5,6,7,8-tetrahydro-naphthalen-1-yloxy)-6H-pyridazin-1-yl]-propionylamino}-nicotinic acid methyl ester]	0.132 µM
COC(=O)c1ccc(NC(=O)C(CC2CCCC2)n2ncc(Oc3c(F)cccc3F)cc2=O)nc1 (centres unmarked) [Example 68, 6-{3-Cyclopentyl-2-[4-(2,6-difluoro-phenoxy)-6-oxo-6H-pyridazin-1-yl]-propionylamino}-nicotinic acid methyl ester]	0.013 µM
COC(=O)c1ccc(NC(=O)[C@H](CC2CCCC2)n2ncc(Oc3c(F)cccc3F)cc2=O)nc1 [Example 68A, 6-{(S)-3-Cyclopentyl-2-[4-(2,6-difluoro-phenoxy)-6-oxo-6H-pyridazin-1-yl]-propionylamino}-nicotinic acid methyl ester]	0.008 µM
COC(=O)c1ccc(NC(=O)[C@@H](CC2CCCC2)n2ncc(Oc3c(F)cccc3F)cc2=O)nc1 [Example 68B, 6-{(R)-3-Cyclopentyl-2-[4-(2,6-difluoro-phenoxy)-6-oxo-6H-pyridazin-1-yl]-propionylamino}-nicotinic acid methyl ester]	0.597 µM
O=C(O)c1ccc(NC(=O)C(CC2CCCC2)n2ncc(Oc3cccc4c3CCCC4)cc2=O)nc1 (centres unmarked) [Example 72, 6-{3-Cyclopentyl-2-[6-oxo-4-(5,6,7,8-tetrahydro-naphthalen-1-yloxy)-6H-pyridazin-1-yl]-propionylamino}-nicotinic acid]	0.098 µM

Now from value to compound:

SC1.5 average (concentration of activator that produced a 50% increase in the activity of GK)	SMILES
0.033 µM	COC(=O)c1ccc(NC(=O)C(CC2CCCC2)n2ncc(Oc3ccccc3C)cc2=O)nc1 (centres unmarked) [Example 69, 6-[3-Cyclopentyl-2-(6-oxo-4-o-tolyloxy-6H-pyridazin-1-yl)-propionylamino]-nicotinic acid methyl ester]
0.036 µM	COC(=O)c1ccc(NC(=O)C(CC2CCCC2)n2ncc(Oc3ccccc3F)cc2=O)nc1 (centres unmarked) [Example 70, 6-{3-Cyclopentyl-2-[4-(2-fluoro-phenoxy)-6-oxo-6H-pyridazin-1-yl]-propionylamino}-nicotinic acid methyl ester]
0.044 µM	O=C(O)c1ccc(NC(=O)[C@H](CC2CCCC2)n2ncc(Oc3cccc4c3CCCC4)cc2=O)nc1 [Example 72A, 6-{(S)-3-Cyclopentyl-2-[6-oxo-4-(5,6,7,8-tetrahydro-naphthalen-1-yloxy)-6H-pyridazin-1-yl]-propionylamino}-nicotinic acid]
0.226 µM	O=C(O)c1ccc(NC(=O)[C@@H](CC2CCCC2)n2ncc(Oc3cccc4c3CCCC4)cc2=O)nc1 [Example 72B, 6-{(R)-3-Cyclopentyl-2-[6-oxo-4-(5,6,7,8-tetrahydro-naphthalen-1-yloxy)-6H-pyridazin-1-yl]-propionylamino}-nicotinic acid]
0.026 µM	O=C(O)c1ccc(NC(=O)C(CC2CCCC2)n2ncc(Oc3c(F)cccc3F)cc2=O)nc1 (centres unmarked) [Example 73, 6-{3-Cyclopentyl-2-[4-(2,6-difluoro-phenoxy)-6-oxo-6H-pyridazin-1-yl]-propionylamino}-nicotinic acid]
0.012 µM	O=C(O)c1ccc(NC(=O)[C@H](CC2CCCC2)n2ncc(Oc3c(F)cccc3F)cc2=O)nc1 [Example 73A, 6-{(S)-3-Cyclopentyl-2-[4-(2,6-difluoro-phenoxy)-6-oxo-6H-pyridazin-1-yl]-propionylamino}-nicotinic acid]
0.507 µM	O=C(O)c1ccc(NC(=O)[C@@H](CC2CCCC2)n2ncc(Oc3c(F)cccc3F)cc2=O)nc1 [Example 73B, 6-{(R)-3-Cyclopentyl-2-[4-(2,6-difluoro-phenoxy)-6-oxo-6H-pyridazin-1-yl]-propionylamino}-nicotinic acid]
0.067 µM	Cc1ccccc1Oc1cnn(C(CC2CCCC2)C(=O)Nc2ccc(C(=O)O)cn2)c(=O)c1 (centres unmarked) [Example 74, 6-[3-Cyclopentyl-2-(6-oxo-4-o-tolyloxy-6H-pyridazin-1-yl)-propionylamino]-nicotinic acid]
0.043 µM	Cc1ccccc1Oc1cnn([C@@H](CC2CCCC2)C(=O)Nc2ccc(C(=O)O)cn2)c(=O)c1 [Example 74A, 6-[(S)-3-Cyclopentyl-2-(6-oxo-4-o-tolyloxy-6H-pyridazin-1-yl)-propionylamino]-nicotinic acid]
0.245 µM	Cc1ccccc1Oc1cnn([C@H](CC2CCCC2)C(=O)Nc2ccc(C(=O)O)cn2)c(=O)c1 [Example 74B, 6-[(R)-3-Cyclopentyl-2-(6-oxo-4-o-tolyloxy-6H-pyridazin-1-yl)-propionylamino]-nicotinic acid]
0.058 µM	O=C(O)c1ccc(NC(=O)C(CC2CCCC2)n2ncc(Oc3ccccc3F)cc2=O)nc1 (centres unmarked) [Example 75, 6-{3-Cyclopentyl-2-[4-(2-fluoro-phenoxy)-6-oxo-6H-pyridazin-1-yl]-propionylamino}-nicotinic acid]
0.033 µM	O=C(O)c1ccc(NC(=O)[C@H](CC2CCCC2)n2ncc(Oc3ccccc3F)cc2=O)nc1 [Example 75A, 6-{(S)-3-Cyclopentyl-2-[4-(2-fluoro-phenoxy)-6-oxo-6H-pyridazin-1-yl]-propionylamino}-nicotinic acid]
